Data on 7 compounds can be found in patent US20250195478A1, “DUAL INHIBITORS OF VISTA AND PD-1 PATHWAYS” (Aurigene Oncology Limited, priority 2016, published 2025).

In assay [1] the target is T1, Recombinant mouse PD-L1 (Mus musculus, UniProt Q9EP73).
T1 construct: Fc (Fc chimera); purchased R&D Systems 1019-B7-100
Kind of assay: Rescue of mouse splenocyte proliferation in the presence of recombinant PD-L1 (CFSE proliferation assay). The note with it: 100 nM compound; anti-CD3/CD28 stimulated mouse splenocytes + PD-L1; 72 h; stimulated splenocytes = 100%; read-out: PDL1 (rescue of proliferation @ 100 nM). It counts as cell-based. The procedure: Example 1: Rescue of Mouse Splenocyte Proliferation in the Presence of Recombinant PD-L1/PD-L2
Recombinant mouse PD-L1 (rm-PDL-1, cat no: 1019-B7-100; R&D Systems) were used as the source of PD-L1.
Mouse splenocytes harvested from 6-8 weeks old C57 BL6 mice; RPMI 1640 (GIBCO, Cat #11875); DMEM with high glucose (GIBCO, Cat #D6429); Fetal Bovine Serum [Hyclone, Cat #SH30071.03]; Penicillin (10000unit/mL)-Streptomycin (10,000 μg/mL) Liquid (GIBCO, Cat #15140-122); MEM Sodium Pyruvate solution 100 mM (100×), Liquid (GIBCO, Cat #11360); Nonessential amino acid (GIBCO, Cat #11140); L-Glutamine (GIBCO, Cat #25030); Anti-CD3 antibody (eBiosciences-16-0032); Anti-CD28 antibody (eBiosciences-16-0281); ACK lysis buffer (1mL) (GIBCO, Cat #-A10492); Histopaque (density-1.083 gm/mL) (SIGMA 10831); Trypan blue solution (SIGMA-T8154); 2 mL Norm Ject Luer Lock syringe-(Sigma 2014-12); 40 μm nylon cell strainer (BD FALCON 35230); Hemacytometer (Bright line-SIGMA Z359629); FACS Buffer (PBS/0.1% BSA): Phosphate Buffered Saline (PBS) pH 7.2 (HiMedia TS1006) with 0.1% Bovine Serum Albumin (BSA) (SIGMA A7050) and sodium azide (SIGMA 08591); 5 mM stock solution of CFSE: CFSE stock solution was prepared by diluting lyophilized CFSE with 180 μL of Dimethyl sulfoxide (DMSO C2H6SO, SIGMA-D-5879) and aliquoted in to tubes for further use. Working concentrations were titrated from 10 μM to 1 μM. (eBioscience-650850-85); 0.05% Trypsin and 0.02% EDTA (SIGMA 59417C); 96-well format ELISA plates (Corning CLS3390); BD FACS caliber (E6016);
Recombinant mouse B7-H1/PDL1 Fc Chimera, (rm-PD-L1 cat no: 1019-B7-100).
Splenocytes harvested in a 50 mL falcon tube by mashing mouse spleen in a 40 μm cell strainer were further treated with 1 mL ACK lysis buffer for 5 min at room temperature.
After washing with 9 mL of RPMI complete media, cells were re-suspended in 3 mL of 1×PBS in a 15 mL tube. 3 mL of Histopaque was added carefully to the bottom of the tube without disturbing overlaying splenocyte suspension. After centrifuging at 800×g for 20 min at room temperature, the opaque layer of splenocytes was collected carefully without disturbing/mixing the layers. Splenocytes were washed twice with cold 1×PBS followed by total cell counting using Trypan Blue exclusion method and used further for cell based assays.
Splenocytes were cultured in RPMI complete media (RPMI +10% fetal bovine serum+1 mM sodium pyruvate+10,000units/mL penicillin and 10,000 μg/mL streptomycin) and maintained in a CO2 incubator with 5% CO2 at 37° C.
CFSE is a dye that passively diffuses into cells and binds to intracellular proteins. 1×10^6 cells/mL of harvested splenocytes were treated with 5 μM of CFSE in pre-warmed 1×PBS/0.1% BSA solution for 10 min at 37° C. Excess CFSE was quenched using 5 volumes of ice-cold culture media to the cells and incubated on ice for 5 min. CFSE labelled splenocytes were further given three washes with ice cold complete RPMI media. CFSE labelled 1×10^5 splenocytes added to wells containing either MDA-MB231 cells (1×10^5 cells cultured in high glucose DMEM medium) or recombinant […] PDL-1 (100 ng/mL) and test compounds. Splenocytes were stimulated with anti-mouse CD3 and anti-mouse CD28 antibody (lug/mL each), and the culture was further incubated for 72 h at 37° C. with 5% CO2. Cells were harvested and washed thrice with ice cold FACS buffer and % proliferation was analysed by flow cytometry with 488 nm excitation and 521 nm emission filters.
Percent splenocyte proliferation was analysed using cell quest FACS program and percent rescue of splenocyte proliferation by compound was estimated after deduction of % background proliferation value and normalising to % stimulated splenocyte proliferation (positive control) as 100%.
Stimulated splenocytes: Splenocytes+anti-CD3/CD28 stimulation
Background proliferation: Splenocytes+anti-CD3/CD28+PD-L1
Compound proliferation: Splenocytes+anti-CD3/CD28+PD-L1+Compound […]

Assay [2] deals with T2, recombinant human VISTA (Homo sapiens, UniProt Q9H7M9).
T2 construct: Fc (Fc chimera); purchased R&D Systems 7126-B7
The assay is described as follows: Human PBMC IFN-γ release assay in the presence of recombinant human VISTA. As to conditions: 100 nM compound, plate-coated VISTA + anti-CD3, anti-CD28, 72 h, ELISA. It counts as cell-based. How it is done: Example 2: Rescue of Mouse Splenocyte Proliferation in the Presence of Recombinant VISTA
Vehicle: Milli Q water; RPMI 1640 (GIBCO, Cat #11875); Fetal Bovine Serum [Hyclone, Cat #SH30071.03]; Penicilin (10000 unit/ml)-Streptomycin (10,000 μg/ml) liquid (GIBCO, Cat #15140-122); MEM Sodium Pyruvate solution 100 mM (100×), Liquid (GIBCO, Cat #11360); Nonessential amino acid (GIBCO, Cat #11140); L-Glutamine (GIBCO, Cat #25030); Recombinant human VISTA (rhGi24 VISTA/B7-H5 Fc chimera (R&D systems, cat no: 7126-B7); Anti-h/m Gi24/VISTA/B7-H5 purified mouse monoclonal IgG2B (R&D systems, cat no: MAB7126); Mouse IgG2B isotype control (R&D Systems cat no: MAB 004); Anti human-CD3 antibody (eBiosciences-16-0039); Anti human-CD28 antibody (eBiosciences-16-0289); Histopaque (density-1.077 gm/ml) (SIGMA 1077); Trypan Blue solution (SIGMA-T8154); Hemacytometer (Bright line-SIGMA Z359629); FACS Buffer containing Phosphate Buffered Saline (PBS) pH 7.2; (HiMedia TS1006) with 0.1% Bovine Serum Albumin (BSA) (SIGMA A7050) and sodium azide (SIGMA 08591); 96-well format ELISA plates (Corning 3599); 96-well format ELISA plates (Corning 3361); BD FACS caliber (E6016); Centrifuge (Eppendorf 5810 R); Human IFN-γ Duo set ELISA kit (R&D Systems; cat no: DY-285).
96-well cell culture plates were pre-coated with recombinant human VISTA (2.5 μg/ml) and anti-human CD3 (2.5 μg/ml), and stored at 4° C. overnight. Anti-human VISTA and isotype control antibodies were either coated along with the VISTA or incubated for 30 min next day before addition of cells. On the next day, plates were washed with 1×PBS and then incubated with test compounds for 30 min. Isolated PBMC (0.1×10^6 cells/well) and anti-human CD28 antibodies (lug/ml) were added to the wells. The culture was further incubated for 72 h at 37° C. with 5% CO2. After 72 h of incubation the cell culture supernatants were collected after brief centrifugation at 200 g×5 min at 4° C. and processed for human IFN-γ measurement by ELISA following manufacturer's protocol (R&D Systems; DY-285).
In brief, 96-well ELISA plates were coated with 100 μl/well of capture antibody in coating buffer and incubated overnight at 4° C. Plates were washed five times with wash buffer and further blocked with 200 μl of 1× assay diluents for 1 hr at RT. Following wash step, 100 μl of cell culture supernatants were added to wells and further incubated for 2 hr at RT. Appropriate standards were also included. After wash step, plate was incubated for one hour with 100 μl/well of detection antibody. The wash step was repeated and the plate was incubated for 30 min with 100 μl/well of Avidin-HRP. The plate was washed four times with wash buffer and subsequently incubated for 15 min with 100 μl/well of substrate solution. 50 μl of stop solution was added to each well and the plate was read at 450 nm using Gen5 ver 2.05. Delta OD values were used for calculating the concentrations. The absorbance values were plotted against the standards and the concentration of IFN-γ was determined using GraphPad Prism software. Each experimental condition was carried out in triplicates.
The percent rescue of IFN-γ release of the selected compounds of present invention are set forth below wherein “A” refers to compounds having more than 70% rescue of IFN-γ release, “B” refers to compounds having rescue of IFN-γ release ranges from 50% to 69.9% and “C” refers to compounds having less than 50% rescue of IFN-γ release.
Background: An ELISA detects its analyte on a solid surface through an enzyme-linked reagent.

T2 sequence (Q9H7M9 with tags, fused parts or gaps limits assumed): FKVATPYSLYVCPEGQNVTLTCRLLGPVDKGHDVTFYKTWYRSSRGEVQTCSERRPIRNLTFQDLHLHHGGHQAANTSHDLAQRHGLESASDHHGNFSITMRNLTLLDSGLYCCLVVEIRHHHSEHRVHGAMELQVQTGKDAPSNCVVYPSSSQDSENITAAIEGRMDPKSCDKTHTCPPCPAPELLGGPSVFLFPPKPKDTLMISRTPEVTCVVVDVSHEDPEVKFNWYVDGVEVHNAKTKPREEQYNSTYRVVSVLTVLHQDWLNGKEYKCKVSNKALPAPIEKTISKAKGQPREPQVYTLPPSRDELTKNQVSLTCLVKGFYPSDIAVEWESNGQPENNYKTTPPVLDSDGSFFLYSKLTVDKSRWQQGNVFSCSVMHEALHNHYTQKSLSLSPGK
T1 sequence (Q9EP73 19-238 limits assumed): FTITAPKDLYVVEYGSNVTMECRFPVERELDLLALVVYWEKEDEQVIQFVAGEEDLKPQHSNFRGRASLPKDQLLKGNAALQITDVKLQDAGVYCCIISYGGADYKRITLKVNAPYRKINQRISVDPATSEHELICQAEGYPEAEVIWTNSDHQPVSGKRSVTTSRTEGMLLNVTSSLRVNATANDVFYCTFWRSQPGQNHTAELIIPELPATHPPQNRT

Take `CC(O)[C@H](NC(=O)N[C@@H](CC(N)=O)c1nc([C@@H](N)CO)no1)C(=O)O` (some centres unmarked) [Compound 1]: the activation at 0.1 µM in assay [1] came to 97%. Besides, the “VISTA (rescue of IFN γ release @ 100 nM)” value in assay [2] is “A (more than 70% rescue of IFN-γ release)”.
As to `N[C@@H](CO)c1noc([C@H](CC(=O)O)NC(=O)N[C@@H](CO)C(=O)O)n1` [Compound 3], in assay [1], the activation at 0.1 µM is 91%. Moreover, in assay [2], the “VISTA (rescue of IFN γ release @ 100 nM)” value is listed as “C (less than 50% rescue of IFN-γ release)”.
`CC(O)[C@H](NC(=O)N[C@@H](CC(N)=O)c1nc(C2(N)CCCCC2)no1)C(=O)O` (some centres unmarked) [Compound 19]: the activation at 0.1 µM in assay [1] worked out at 86%. Besides, in assay [2], the “VISTA (rescue of IFN γ release @ 100 nM)” value was “B (rescue of IFN-γ release ranges from 50% to 69.9%)”.
`N[C@@H](Cc1cnc[nH]1)c1noc([C@H](CC(=O)O)NC(=O)N[C@@H](CO)C(=O)O)n1` [Compound 14]: the activation at 0.1 µM in assay [1] worked out at 59%. Besides, the “VISTA (rescue of IFN γ release @ 100 nM)” value in assay [2] was “B (rescue of IFN-γ release ranges from 50% to 69.9%)”.
Consider `CN[C@@H](CO)c1noc([C@H](CC(N)=O)NC(=O)N[C@H](C(=O)O)C(C)O)n1` (some centres unmarked) [Compound 6], for which, in assay [1], the activation at 0.1 µM turned out to be 63%. In addition, in assay [2], the “VISTA (rescue of IFN γ release @ 100 nM)” value was “C (less than 50% rescue of IFN-γ release)”.
The corresponding values for `CC(O)[C@H](NC(=O)N[C@H](CC(N)=O)c1nc([C@H](N)CO)no1)C(=O)O` (some centres unmarked) [Compound 24] are 55% and “A (more than 70% rescue of IFN-γ release)”.
The matching figures for `CC(O)[C@H](NC(=O)N[C@@H](CC(N)=O)c1nc([C@H](N)CO)no1)C(=O)O` (some centres unmarked) [Compound 21]: 64% and “A (more than 70% rescue of IFN-γ release)”.
